Experimental data reported in patent US20140363391A1, “SYSTEM AND METHOD FOR ADMINISTERING POLOXAMERS AND ANESTHETICS WHILE PERFORMING CPR AND MINIMIZING REPERFUSION INJURY” (priority 2013, published 2014).

Test system: animals receiving CPR
Assay: Animal studies with administration of an anesthetic gas during CPR
Assay type: in vivo
Details: compared with other inhaled anesthetics
Description: In one embodiment, the administered anesthetic includes sevoflurane. Other volatile anesthetics that may be administered include: halothane, enflurane, and desflurane isoflurane, xenon, helium and the like. […] These anesthetics may provide protective effects when administered before or during CPR and help stabilize the brain, heart, or body to help the heart, brain, and/or body to stay fresh. It is believed that some anesthetic agents provide these effects by attenuating the mitochondrial membrane permeability, or manipulating and protecting the mitochondrial membrane pores. It is believed that during ischemia, permeability pores in the mitochondria cell membrane open up causing the mitochondria to swell. In such a condition, the mitochondria are destroyed or damaged when blood flow is reestablished. The anesthetic may help protects against such damage, especially if the anesthetic is delivered or delivery is initiated early in reestablishing blood flow. Some volatile anesthetics like Xenon provide anesthesia by non-competitive inhibit N-methyl-D-aspartate receptors. Due to the fact that reperfusion injury occurs very early during the resuscitation efforts (within 2-3 minutes from the imitation of CPR) it is preferable that the anesthetic is delivered or delivery is initiated within the first 5 minutes of CPR efforts. […]

cardiodepressant effects: less of cardiodepressant effects
Compound: FCOC(C(F)(F)F)C(F)(F)F [Sevoflurane, sevoflurane]
protection from reperfusion injury: significant protection from reperfusion injury
